From PMC12607858, “GNAT family Pat2 is required for long-term survival on glycerol and catalyzes lysine acetylation of glycerol kinase in hypersaline-adapted archaea” (mBio, 2025)

Experiments:
[1] = biological target: T1, HvPat2 (HvPat2-SII) (Haloferax volcanii, UniProt D4GSS9, N147A); experiment: anti-acetyllysine immunoblot of in vitro acetylation of His-HvGlpK; type: biochemical; details: acetyl donor 0.2 mM; 6 uM enzyme; co-substrate HvGlpK 2 uM; 50 mM HEPES pH 7.5, 2 M NaCl, 1 mM DTT, 37 C, 3 h
T1 construct: gene pat2; full-length single GNAT domain, C-terminal StrepII tag kept; expressed in and purified from H. volcanii H26 delta-pat2; 196 residues with tag, 21,636 Da, monomer
T1 sequence (D4GSS9 entry or part of it N147A): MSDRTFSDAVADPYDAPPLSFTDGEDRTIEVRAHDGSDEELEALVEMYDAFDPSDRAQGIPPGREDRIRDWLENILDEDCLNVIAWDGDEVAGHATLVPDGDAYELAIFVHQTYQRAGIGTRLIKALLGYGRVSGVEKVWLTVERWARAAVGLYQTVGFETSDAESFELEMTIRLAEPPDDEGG

[2] = biological target: T2, HvPat2 (HvPat2-SII) (Haloferax volcanii, UniProt D4GSS9); experiment: as above; type: biochemical; details: acetyl donor 0.2 mM; 6 uM enzyme; co-substrate HvGlpK 2 uM; 50 mM HEPES pH 7.5, 2 M NaCl, 1 mM DTT, 37 C, 3 h
T2 construct: gene pat2; full-length single GNAT domain, C-terminal StrepII tag kept; expressed in and purified from H. volcanii H26 delta-pat2; 196 residues with tag, 21,636 Da, monomer
T2 sequence (D4GSS9 entry or part of it): as the sequence (D4GSS9 entry or part of it N147A) above, with A147N counted along it

CC(=O)SCCNC(=O)CCNC(=O)[C@H](O)C(C)(C)COP(=O)(O)OP(=O)(O)OC[C@H]1O[C@@H](n2cnc3c(N)ncnc32)[C@H](O)[C@@H]1OP(=O)(O)O [acetyl-CoA]
anti-acetyllysine immunoblot of in vitro acetylation of His-HvGlpK [1]: The V110A variant showed minimal activity, while N147A exhibited reduced activity
anti-acetyllysine immunoblot of in vitro acetylation of His-HvGlpK [2]: when His-HvGlpKEc was incubated with both HvPat2 and acetyl-CoA, a strong signal for lysine acetylation
